Assay results published in patent US9765018B2, “IDO inhibitors” (BRISTOL-MYERS SQUIBB COMPANY, priority 2013, dated 2017).

Columns and labels:
[1] = molecular target: T1, IDO (Homo sapiens (Human), UniProt P14902); test: Kynurenine assay in IFN-γ-stimulated Hela cells; assay type: cell-based; details: 20 h, read-out: Hela Kyurenine (IC50)
How it was run: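 Kynurenine in supernatant is read at 490 nm after Ehrlich reagent (10 min RT), following TCA stop and 30 min at 50° C hydrolysis. Before that, Hela cells in phenol red-free RPMI/10% FBS were co-treated 20 h at 37° C with 100 ng/mL IFN-γ and compound (30 μM top, 3-fold series to 1.5 nM).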

[2] = molecular target: T1, IDO; test: LLE_IDO_ABS_DR (IDO assay, method not described)

T1 sequence (P14902 whole entry): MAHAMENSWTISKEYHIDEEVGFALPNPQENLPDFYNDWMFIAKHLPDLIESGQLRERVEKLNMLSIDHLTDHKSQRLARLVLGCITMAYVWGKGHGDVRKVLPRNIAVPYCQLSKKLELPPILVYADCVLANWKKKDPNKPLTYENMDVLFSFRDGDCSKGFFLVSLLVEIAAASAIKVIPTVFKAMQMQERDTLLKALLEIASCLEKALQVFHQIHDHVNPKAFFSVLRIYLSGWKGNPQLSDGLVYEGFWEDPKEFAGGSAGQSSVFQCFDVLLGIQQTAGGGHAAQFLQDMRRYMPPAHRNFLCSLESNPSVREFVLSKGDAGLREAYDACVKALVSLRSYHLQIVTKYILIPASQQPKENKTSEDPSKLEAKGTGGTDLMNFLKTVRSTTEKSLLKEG

| IC50 [1] [nM] | IC50 [2] [nM] | SMILES |
| --- | --- | --- |
| 390 | 460 | COc1cc(C(=O)O)c(-c2ccc(Oc3ccccc3C(C)(C)C)c(NC(=O)Nc3ccc(C)cc3)c2)cc1OC [Example 165, 4′-(2-tert-butylphenoxy)-4,5-dimethoxy-3′-(3-p-tolylureido)biphenyl-2-carboxylic acid] |
| 820 | 1590 | COc1ccc(-c2ccc(Oc3ccccc3C(C)(C)C)c(NC(=O)Nc3ccc(OC(F)(F)F)cc3)c2)cc1C(=O)O [Example 66, 4′-(2-tert-butylphenoxy)-4-methoxy-3′-(3-(4-(trifluoromethoxy)phenyl)ureido)biphenyl-3-carboxylic acid] |
| 760 | 1110 | COc1ccc(-c2cnc(Oc3ccccc3C(C)(C)C)c(NC(=O)Nc3ccccc3Cl)c2)cc1C(=O)O [Example 336] |
| 130 | 320 | COc1ccc(-c2ccc(Oc3ccccc3C(C)(C)C)c(NC(=O)Nc3cccc(Cl)c3Cl)c2)cc1C(=O)O [Example 81, 4′-(2-(tert-butyl)phenoxy)-3′-(3-(2,3-dichlorophenyl)ureido)-4-methoxy-[1,1′-biphenyl]-3-carboxylic acid] |
| 870 | 3470 | Cc1ccccc1NC(=O)Nc1cc(-c2ccc(Cl)cc2C(=O)O)ccc1Oc1ccccc1C(C)(C)C [Example 159, 4′-(2-tert-butylphenoxy)-4-chloro-3′-(3-o-tolylureido)biphenyl-2-carboxylic acid] |
| 1300 | 3630 | CC(C)(C)c1ccccc1Oc1ccc(-c2cc(Cl)ccc2C(=O)O)cc1NC(=O)Nc1ccccc1Cl [Example 166, 4′-(2-tert-butylphenoxy)-5-chloro-3′-(3-(2-chlorophenyl)ureido)biphenyl-2-carboxylic acid] |
| 390 | 2340 | COc1ccc(-c2ccc(O[C@@H]3CCCC[C@H]3C)c(NC(=O)Nc3cccc(C)c3)c2)cc1C(=O)O (relative stereo) [Example 138, 4-methoxy-4′-((trans)-2-methylcyclohexyloxy)-3′-(3-m-tolylureido)biphenyl-3-carboxylic acid] |
| 300 | 1830 | CC(C)(C)c1ccccc1Oc1ccc(-c2ccc(C(=O)O)c(Cl)c2)cc1NC(=O)Nc1ccccc1Cl [Example 215, 4′-(2-tert-butylphenoxy)-3-chloro-3′-(3-(2-chlorophenyl)ureido)biphenyl-4-carboxylic acid] |
| 780 | 8150 | Cc1cccc(NC(=O)Nc2cc(-c3ccc(C(=O)O)cc3)ccc2Oc2ccccc2C(C)(C)C)c1 [Example 201, 4′-(2-tert-butylphenoxy)-3′-(3-m-tolylureido) biphenyl-4-carboxylic acid] |
| 180 | 430 | COc1ccc(-c2ccc(Oc3cccc(C(C)(C)C)c3)c(NC(=O)Nc3ccccc3C)c2)cc1C(=O)O [Example 111, 4′-(3-tert-butylphenoxy)-4-methoxy-3′-(3-o-tolylureido)biphenyl-3-carboxylic acid] |
| 1480 | 2580 | Cc1ccccc1NC(=O)Nc1cc(-c2cccc(F)c2C(=O)O)ccc1Oc1ccccc1C(C)(C)C [Example 175, 4′-(2-tert-butylphenoxy)-3-fluoro-3′-(3-o-tolylureido)biphenyl-2-carboxylic acid] |
| 170 | 730 | COc1ccc(-c2ccc(Oc3ccccc3C3CC3)c(NC(=O)Nc3ccccc3C)c2)cc1C(=O)O [Example 125, 4′-(2-cyclopropylphenoxy)-4-methoxy-3′-(3-o-tolylureido)biphenyl-3-carboxylic acid] |
| 850 | 3350 | O=C(Nc1ccc(Cl)cc1)Nc1cc(-c2ccc(C(=O)O)c(Cl)c2)ccc1Oc1ccccc1C(F)(F)F [Example 206, 3-chloro-3′-(3-(4-chlorophenyl)ureido)-4′-(2-(trifluoromethyl)phenoxy)biphenyl-4-carboxylic acid] |
| 510 | 2540 | COc1ccc(-c2ccc(Oc3c(C)cccc3C(C)(C)C)c(NC(=O)Nc3ccccc3Cl)c2)cc1C(=O)O [Example 54, 4′-(2-tert-butyl-6-methylphenoxy)-3′-(3-(2-chlorophenyl)ureido)-4-methoxybiphenyl-3-carboxylic acid] |
| 810 | 2230 | Cc1ccc(NC(=O)Nc2cc(-c3ccc(F)cc3C(=O)O)ccc2Oc2ccccc2C(C)(C)C)cc1 [Example 170, 4′-(2-tert-butylphenoxy)-4-fluoro-3′-(3-p-tolylureido)biphenyl-2-carboxylic acid] |
| 700 | 3940 | Cc1ccc(NC(=O)Nc2cc(-c3cc(Cl)cc(C(=O)O)c3)ccc2Oc2ccccc2C(C)(C)C)cc1 [Example 246, 4′-(2-tert-butylphenoxy)-5-chloro-3′-(3-p-tolylureido) biphenyl-3-carboxylic acid] |
| 460 | 1320 | COc1ccc(-c2ccc(Oc3ccc4c(c3)CCCC4)c(NC(=O)Nc3cccc(C)c3)c2)cc1C(=O)O [Example 147, 4-methoxy-4′-(5,6,7,8-tetrahydronaphthalen-2-yloxy)-3′-(3-m-tolylureido)biphenyl-3-carboxylic acid] |
| 160 | 470 | COc1ccc(-c2ccc(Oc3ccccc3C(C)(C)C)c(NC(=O)Nc3ccc(C)cc3)c2)c(C(=O)O)c1 [Example 163, 4′-(2-tert-butylphenoxy)-4-methoxy-3′-(3-p-tolylureido)biphenyl-2-carboxylic acid] |
| 340 | 1210 | CCCCNC(=O)Nc1cc(-c2ccccc2-c2nnn[nH]2)ccc1Oc1ccccc1C(C)(C)C [Example 191, 1-butyl-3-(4-(2-tert-butylphenoxy)-2′-(1H-tetrazol-5-yl)biphenyl-3-yl)urea] |
| 660 | 2340 | CC(C)(C)c1ccccc1Oc1ccc(-c2ccc(F)cc2C(=O)O)cc1NC(=O)Nc1ccccc1Cl [Example 169, 4′-(2-tert-butylphenoxy)-3′-(3-(2-chlorophenyl)ureido)-4-fluorobiphenyl-2-carboxylic acid] |
| 50 | 240 | Cc1ccc(NC(=O)Nc2cc(-c3ccc(Cl)cc3C(=O)O)ccc2Oc2ccccc2C(C)(C)C)cc1 [Example 161, 4′-(2-tert-butylphenoxy)-4-chloro-3′-(3-p-tolylureido)biphenyl-2-carboxylic acid] |
| 440 | 10000 | COc1ccc(-c2ccc(Oc3ccccc3C(C)(C)C)c(NC(=O)Nc3ccc(C(F)(F)F)cc3)c2)cc1C(=O)O [Example 43, 4′-(2-tert-butylphenoxy)-4-methoxy-3′-(3-(4-(trifluoromethyl)phenyl)ureido)biphenyl-3-carboxylic acid] |
| 1630 | 3070 | Cc1ccccc1NC(=O)Nc1cc(-c2cccc(Cl)c2C(=O)O)ccc1Oc1ccccc1C(C)(C)C [Example 173, 4′-(2-tert-butylphenoxy)-3-chloro-3′-(3-o-tolylureido)biphenyl-2-carboxylic acid] |
| 250 | 1160 | COc1ccc(-c2ccc(Oc3ccccc3C(C)(C)C)c(NC(=O)Nc3ccccc3C)c2)c(-c2nnn[nH]2)c1 [Example 193, 1-(4-(2-tert-butylphenoxy)-4′-methoxy-2′-(1H-tetrazol-5-yl)biphenyl-3-yl)-3-o-tolylurea] |
